For 11 compounds, GI50 and TGI results are on record in PubChem BioAssay (NCI).

“And” between values parts separate entries of the source, which are not always exact repeats. Equal entries are not always repeated.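 Five compound concentrations were applied to cells in 96-well plates for 48 hours; endpoints were derived by simple linear interpolation of the resulting dose-response curve. GI50 is the concentration that inhibits growth by half. TGI: total growth inhibition.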

Test systems include EKVX NSCLC; NCI-H23 lung; CCRF-CEM leukemia; MDA-MB-435; DU-145 prostate; OVCAR-4 ovarian; A498 renal; OVCAR-5 ovarian; ACHN renal; HL-60(TB) leukemia.
What all share (assay): DTP human tumour cell line panel, 48 h

`COc1cc(C)ccc1C(=O)c1ccc(C)cc1OC`: the GI50 in the experiment with EKVX NSCLC is 5.29 µM; with NCI-H23 lung it was 6.31 µM; with CCRF-CEM leukemia, 5.57 µM; with MDA-MB-435, 0.295 µM; with DU-145 prostate it was 3.45 µM; in the experiment with OVCAR-4 ovarian it was 45.1 µM. In addition, the values for the GI50 in the experiment with A498 renal, in the experiment on OVCAR-5 ovarian and in the experiment with ACHN renal were 1.24 µM, 7.02 µM and 8.21 µM, respectively. Further, the TGI is greater than 100 µM in the experiment on EKVX NSCLC; greater than 100 µM in the experiment on NCI-H23 lung; greater than 100 µM with CCRF-CEM leukemia; 1.08 µM in the experiment with MDA-MB-435; 83.6 µM with DU-145 prostate; greater than 100 µM in the experiment with OVCAR-4 ovarian. The TGI with A498 renal was 39.6 µM; in the experiment on OVCAR-5 ovarian, greater than 100 µM; in the experiment on ACHN renal it was greater than 100 µM.

Take `C/C(CC(O)(C(F)(F)F)C(F)(F)F)=N\NC(N)=O`: the TGI in the experiment with HL-60(TB) leukemia, in the experiment on EKVX NSCLC, in the experiment with NCI-H23 lung, in the experiment with CCRF-CEM leukemia, with MDA-MB-435 and with DU-145 prostate was greater than 10 µM in each case. The TGI with OVCAR-4 ovarian, in the experiment with A498 renal and in the experiment with ACHN renal was greater than 10 µM each time.

Take `CNC(=S)Nc1ccc(OC)c2ccccc12`: the TGI in the experiment on HL-60(TB) leukemia, in the experiment with NCI-H23 lung, with CCRF-CEM leukemia, with MDA-MB-435, in the experiment on DU-145 prostate and with OVCAR-4 ovarian was greater than 10 µM throughout. The TGI in the experiment with OVCAR-5 ovarian and in the experiment on ACHN renal was greater than 10 µM in each case.

Regarding `Cc1ccc(S(=O)(=O)SC/C=C\CSS(=O)(=O)c2ccc(C)cc2)cc1`, the TGI in the experiment with EKVX NSCLC is greater than 100 µM; with NCI-H23 lung it was 73.9 µM and 34.7 µM; in the experiment with CCRF-CEM leukemia, 37.6 µM; with MDA-MB-435 it was 27.6 µM; with DU-145 prostate, greater than 66.9 µM; in the experiment with OVCAR-4 ovarian it was > 100 µM and 41.2 µM. Besides, the TGI with A498 renal was greater than 100 µM; with OVCAR-5 ovarian, greater than 100 µM; with ACHN renal, > 100 µM and 83.6 µM. For the same compound, the GI50 is 53.1 µM and 20.1 µM in the experiment with OVCAR-4 ovarian; > 78.5 µM and 30 µM with OVCAR-5 ovarian.

On to `Clc1ccc(-c2cn3ccnc3c(-c3ccc(Cl)cc3)n2)cc1`, for which the GI50 in the experiment on HL-60(TB) leukemia was 0.954 µM; in the experiment on EKVX NSCLC it was 31.9 µM; with NCI-H23 lung it was 24.3 µM; in the experiment with MDA-MB-435 it was 2.79 µM; in the experiment on DU-145 prostate, 25.3 µM; with A498 renal, 30.7 µM. Besides, the GI50 was 32.9 µM with OVCAR-5 ovarian and 13 µM in the experiment on ACHN renal. Further, the TGI in the experiment on HL-60(TB) leukemia is 19 µM; with EKVX NSCLC, greater than 100 µM; in the experiment with NCI-H23 lung it was 80.1 µM; in the experiment with MDA-MB-435, 8.07 µM; with DU-145 prostate, greater than 100 µM; with A498 renal, 77.2 µM. In addition, the values for the TGI in the experiment on OVCAR-5 ovarian and in the experiment with ACHN renal were greater than 100 µM and 52.3 µM, respectively.

Consider `CC(CO)Nc1cc(-c2[nH]c3cccnc3c2-c2ccc(F)cc2)ccn1` (stereo not given), for which the GI50 in the experiment on HL-60(TB) leukemia was greater than 25 µM; with NCI-H23 lung, greater than 25 µM; in the experiment on CCRF-CEM leukemia, greater than 25 µM; in the experiment on MDA-MB-435 it was greater than 22.4 µM; with DU-145 prostate, 17.6 µM; with OVCAR-4 ovarian, greater than 25 µM. For the same compound, the GI50 is 4.36 µM in the experiment with A498 renal, 22.8 µM in the experiment with OVCAR-5 ovarian and 3.99 µM in the experiment on ACHN renal. In addition, the TGI with HL-60(TB) leukemia, with NCI-H23 lung, in the experiment on CCRF-CEM leukemia, with MDA-MB-435, in the experiment with DU-145 prostate and in the experiment with OVCAR-4 ovarian was greater than 25 µM throughout. Moreover, the TGI in the experiment on A498 renal is 25 µM; in the experiment on OVCAR-5 ovarian, greater than 25 µM; in the experiment on ACHN renal, greater than 25 µM.

On to `CN1CCN(C(=S)N(C)C(=O)c2ccco2)CC1`, for which the TGI in the experiment with NCI-H23 lung, with CCRF-CEM leukemia, with MDA-MB-435, in the experiment with DU-145 prostate, with OVCAR-4 ovarian and in the experiment on OVCAR-5 ovarian was greater than 100 µM throughout. The concentration for total growth inhibition (TGI) with ACHN renal is greater than 100 µM.

Regarding `CCSC1=NC2C(N(CC)C(=O)N2CC)N1/N=C/C=C/c1ccccc1[N+](=O)[O-]` (stereo not given), the GI50 is 0.205 µM with HL-60(TB) leukemia; 0.314 µM in the experiment on EKVX NSCLC; 0.351 µM with NCI-H23 lung; 0.331 µM in the experiment on CCRF-CEM leukemia; 0.325 µM in the experiment with DU-145 prostate; 0.28 µM in the experiment with OVCAR-4 ovarian. Also, the GI50 in the experiment with A498 renal is 0.0283 µM; with OVCAR-5 ovarian it was 0.426 µM; with ACHN renal, 0.121 µM. Further, the TGI with HL-60(TB) leukemia is 0.502 µM; with EKVX NSCLC, greater than 100 µM; with NCI-H23 lung, greater than 100 µM; with CCRF-CEM leukemia, greater than 100 µM; in the experiment with DU-145 prostate, greater than 100 µM; in the experiment with OVCAR-4 ovarian, greater than 100 µM. Besides, the figures for the TGI with A498 renal, in the experiment with OVCAR-5 ovarian and in the experiment with ACHN renal were 0.209 µM, greater than 100 µM and greater than 100 µM, respectively.

As for `COc1cccc(-c2nc3cc(NC(=O)c4ccc(Cl)c(C#N)c4)ccc3o2)c1`, the GI50 is greater than 100 µM in the experiment on HL-60(TB) leukemia; 1.69 µM in the experiment with NCI-H23 lung; greater than 100 µM in the experiment on CCRF-CEM leukemia; 1.37 µM with MDA-MB-435; 2.36 µM in the experiment on DU-145 prostate; 1.8 µM in the experiment on OVCAR-4 ovarian. Further, the GI50 with OVCAR-5 ovarian is 3.05 µM. Besides, the TGI is greater than 100 µM in the experiment on HL-60(TB) leukemia; 4.15 µM in the experiment on NCI-H23 lung; greater than 100 µM in the experiment on CCRF-CEM leukemia; 2.85 µM in the experiment on MDA-MB-435; greater than 100 µM with DU-145 prostate; 3.43 µM in the experiment on OVCAR-4 ovarian. The compound further registered a TGI with OVCAR-5 ovarian greater than 100 µM.

As to `CCC1(O)C(=O)OCc2c1cc1n(c2=O)Cc2cc3ccccc3nc2-1` (stereo not given), the TGI in the experiment on HL-60(TB) leukemia was 0.0659 µM; in the experiment with EKVX NSCLC, 0.488 µM; with NCI-H23 lung it was 0.0806 µM; in the experiment on MDA-MB-435, 8.35 µM; with OVCAR-4 ovarian it was greater than 100 µM; in the experiment with A498 renal, 4.15 µM. Also, the TGI was found to be 1.25 µM with OVCAR-5 ovarian and 0.519 µM in the experiment with ACHN renal.

Turning to `O=C1C=CC(=O)c2c1ccc1c3ccccc3n(Cc3ccc([N+](=O)[O-])cc3)c21`, the concentration for total growth inhibition (TGI) is 33.2 µM in the experiment with HL-60(TB) leukemia; greater than 100 µM with EKVX NSCLC; greater than 100 µM with NCI-H23 lung; 40.8 µM in the experiment on CCRF-CEM leukemia; greater than 100 µM in the experiment with MDA-MB-435; greater than 100 µM with DU-145 prostate. Besides, the TGI in the experiment with OVCAR-4 ovarian and with ACHN renal was greater than 100 µM each time.
